Experimental data: ChEMBL document CHEMBL1154954, “Synthesis and in vitro evaluation of (18)F-labelled S-fluoroalkyl diarylguanidines: Novel high-affinity NMDA receptor antagonists for imaging with PET” (Bioorg Med Chem Lett, 2010)
Activity calls are given as the source filed them. The rule behind the calls is not given here.

Columns and labels:
[1] = Inhibition of opioid receptor at 10 nM; conditions: tested as the 18F-labelled form
[2] = Inhibition of opioid receptor at 1 uM; conditions: tested as the 18F-labelled form
[3] = Inhibition of GABA A receptor at 1 uM; conditions: tested as the 18F-labelled form
[4] = Inhibition of GABA A receptor at 10 nM; conditions: tested as the 18F-labelled form
[5] = target: Sodium-dependent noradrenaline transporter (Homo sapiens) (UniProt P23975); experiment: Inhibition of norepinephrine transporter at 10 nM; conditions: tested as the 18F-labelled form
[6] = target: Sodium-dependent noradrenaline transporter (Homo sapiens) (UniProt P23975); experiment: Inhibition of norepinephrine transporter at 1 uM; conditions: tested as the 18F-labelled form
[7] = target: Sigma non-opioid intracellular receptor 1 (Homo sapiens) (UniProt Q99720); experiment: Inhibition of sigma 1 receptor at 1 uM; conditions: tested as the 18F-labelled form
[8] = Inhibition of sigma 2 receptor at 1 uM; conditions: tested as the 18F-labelled form
[9] = target: 5-hydroxytryptamine receptor 5A (Homo sapiens) (UniProt P47898); experiment: Inhibition of 5HT5A receptor at 1 uM; conditions: tested as the 18F-labelled form
[10] = target: 5-hydroxytryptamine receptor 5A (Homo sapiens) (UniProt P47898); experiment: Inhibition of 5HT5A receptor at 10 nM; conditions: tested as the 18F-labelled form
[11] = Inhibition of voltage gated sodium channel site 2 at 1 uM; conditions: tested as the 18F-labelled form
[12] = Inhibition of voltage gated sodium channel site 2 at 10 nM; conditions: tested as the 18F-labelled form
[13] = target: Sigma non-opioid intracellular receptor 1 (Homo sapiens) (UniProt Q99720); experiment: Inhibition of sigma 1 receptor at 10 nM; conditions: tested as the 18F-labelled form
[14] = Inhibition of sigma 2 receptor at 10 nM; conditions: tested as the 18F-labelled form
[15] = Binding affinity to NMDA receptor PCP binding site
[16] = Distribution coefficient, log D at pH 7.5; type: physicochemical; conditions: octanol/water
Glutamate NMDA receptor = experiment: Displacement of [3H]TCP from NMDA receptor PCP binding site in rat cerebral cortex homogenate; type: tissue-based
[17] = target: Voltage-gated inwardly rectifying potassium channel KCNH2 (Homo sapiens, UniProt Q12809); experiment: Inhibition of human ERG at 10 nM; conditions: 0.01 µM
hERG (KCNH2) = hERG (KCNH2) (Homo sapiens, UniProt Q12809); experiment: Inhibition of human ERG at 1 uM
[18] = Octanol-phosphate buffer partition coefficient, log D at pH 7.4; type: physicochemical
[19] = Lipophilicity, log D of the compound; type: physicochemical; conditions: octanol/water

Sequence of Sodium-dependent noradrenaline transporter (Homo sapiens) (P23975 whole entry): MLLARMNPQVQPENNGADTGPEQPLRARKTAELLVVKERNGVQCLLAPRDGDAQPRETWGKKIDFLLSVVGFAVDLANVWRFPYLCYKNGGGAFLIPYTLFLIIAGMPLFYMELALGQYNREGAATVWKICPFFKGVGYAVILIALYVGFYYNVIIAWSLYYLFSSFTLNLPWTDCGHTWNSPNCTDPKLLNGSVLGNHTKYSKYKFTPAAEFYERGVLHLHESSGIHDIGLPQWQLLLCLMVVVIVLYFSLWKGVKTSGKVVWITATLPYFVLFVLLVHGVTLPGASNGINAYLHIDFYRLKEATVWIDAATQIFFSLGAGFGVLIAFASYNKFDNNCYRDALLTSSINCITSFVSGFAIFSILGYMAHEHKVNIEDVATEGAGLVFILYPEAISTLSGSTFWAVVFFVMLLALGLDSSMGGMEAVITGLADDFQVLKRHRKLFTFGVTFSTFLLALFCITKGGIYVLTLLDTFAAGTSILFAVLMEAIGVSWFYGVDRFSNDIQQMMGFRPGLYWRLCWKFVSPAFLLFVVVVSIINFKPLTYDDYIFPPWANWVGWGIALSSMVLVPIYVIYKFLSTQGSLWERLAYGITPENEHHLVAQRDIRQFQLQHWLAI
Sequence of Sigma non-opioid intracellular receptor 1 (Homo sapiens) (Q99720 whole entry): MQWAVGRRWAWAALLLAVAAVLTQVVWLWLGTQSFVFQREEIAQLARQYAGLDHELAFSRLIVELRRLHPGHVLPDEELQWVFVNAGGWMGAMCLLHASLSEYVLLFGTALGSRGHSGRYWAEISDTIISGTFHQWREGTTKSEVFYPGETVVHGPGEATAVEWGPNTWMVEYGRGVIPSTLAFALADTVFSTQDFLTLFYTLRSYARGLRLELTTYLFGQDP
Sequence of 5-hydroxytryptamine receptor 5A (Homo sapiens) (P47898 whole entry): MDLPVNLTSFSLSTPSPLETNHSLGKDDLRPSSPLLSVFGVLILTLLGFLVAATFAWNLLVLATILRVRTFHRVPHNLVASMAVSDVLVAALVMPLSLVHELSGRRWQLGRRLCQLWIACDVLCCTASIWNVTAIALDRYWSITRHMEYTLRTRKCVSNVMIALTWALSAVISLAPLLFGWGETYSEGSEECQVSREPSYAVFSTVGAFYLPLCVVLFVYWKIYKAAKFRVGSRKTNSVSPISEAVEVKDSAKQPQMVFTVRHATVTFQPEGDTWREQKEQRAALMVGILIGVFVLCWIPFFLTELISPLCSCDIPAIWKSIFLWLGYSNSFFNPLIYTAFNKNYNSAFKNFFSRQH
Sequence of Voltage-gated inwardly rectifying potassium channel KCNH2 (Q12809 whole entry): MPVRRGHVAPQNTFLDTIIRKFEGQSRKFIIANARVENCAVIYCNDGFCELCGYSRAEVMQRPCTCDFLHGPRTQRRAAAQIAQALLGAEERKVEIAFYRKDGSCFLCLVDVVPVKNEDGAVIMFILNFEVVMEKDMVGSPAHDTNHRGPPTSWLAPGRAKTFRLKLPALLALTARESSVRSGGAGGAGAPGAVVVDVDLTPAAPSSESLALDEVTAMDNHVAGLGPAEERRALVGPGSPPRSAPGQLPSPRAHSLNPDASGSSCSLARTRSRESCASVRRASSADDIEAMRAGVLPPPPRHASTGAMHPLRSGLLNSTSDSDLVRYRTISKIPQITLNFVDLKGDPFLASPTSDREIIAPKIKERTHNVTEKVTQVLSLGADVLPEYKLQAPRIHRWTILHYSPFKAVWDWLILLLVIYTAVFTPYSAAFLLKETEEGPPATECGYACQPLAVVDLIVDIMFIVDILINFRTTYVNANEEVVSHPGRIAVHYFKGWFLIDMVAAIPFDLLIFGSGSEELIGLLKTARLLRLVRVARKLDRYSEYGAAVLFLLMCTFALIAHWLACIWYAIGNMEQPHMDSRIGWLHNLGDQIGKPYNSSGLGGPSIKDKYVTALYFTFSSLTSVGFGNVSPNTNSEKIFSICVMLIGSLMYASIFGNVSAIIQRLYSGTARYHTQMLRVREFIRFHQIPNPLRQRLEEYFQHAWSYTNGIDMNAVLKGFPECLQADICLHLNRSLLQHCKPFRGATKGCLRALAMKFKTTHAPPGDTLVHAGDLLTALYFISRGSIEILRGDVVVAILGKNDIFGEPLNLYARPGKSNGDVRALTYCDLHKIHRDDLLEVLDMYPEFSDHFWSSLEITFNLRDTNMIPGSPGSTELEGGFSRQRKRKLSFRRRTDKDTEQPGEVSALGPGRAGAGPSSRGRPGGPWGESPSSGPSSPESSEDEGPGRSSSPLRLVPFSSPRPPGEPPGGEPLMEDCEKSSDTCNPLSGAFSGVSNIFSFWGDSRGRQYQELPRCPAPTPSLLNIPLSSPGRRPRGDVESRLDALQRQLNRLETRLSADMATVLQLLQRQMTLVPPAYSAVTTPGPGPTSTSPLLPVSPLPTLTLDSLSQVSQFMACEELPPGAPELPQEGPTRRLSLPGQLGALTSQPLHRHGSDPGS
Sequence of hERG (KCNH2) (Q12809 whole entry): as above

With `CSc1cccc(N(C)C(=N)Nc2cc(SCCF)ccc2Cl)c1` the Activity [1] was “inactive”, the Activity [2] was “Active” and the Activity [3] was “Active”. The Activity [4] was “inactive”, the Activity [5] was “inactive” and the Activity [6] was “Active”. The Activity [7] was “Active”, the Activity [8] was “Active” and the Activity [9] was “Active”. The Activity [10] was “inactive”, the inhibition [11] was 47% and the Activity [12] was “inactive”. The Activity [13] was “inactive” and the Activity [14] was “inactive”.

In the case of `[18F]CC12NC(Cc3ccccc31)c1ccccc12` (centres undefined), the Kd [15] is reported as 79 nM.

`CSc1ccc(Cl)c(NC(=N)N(C)c2cccc(O[11CH3])c2)c1` showed a Kd [15] of 5.2 nM.

In the case of `CSc1ccc(Cl)c(NC(=N)N(C)c2cccc(S[11CH3])c2)c1`, the Kd [15] is reported as 1.9 nM, the logD [16] is reported as 2.68 and the Kd (Glutamate NMDA receptor) is reported as 1.78 nM.

For `[18F]CCc1ccc(C2(N3CCCCC3)CCCCC2)s1`, the Kd [15] was 38 nM.

In the case of `C[C@]12C[C@@H]3C[C@](N)(C1)C[C@@](C[18F])(C3)C2`, the IC50 [15] is reported as 6000 nM.

Work on `CSc1cccc(N(C)C(=N)Nc2cc(SC[18F])ccc2Cl)c1` yielded a Kd (Glutamate NMDA receptor) of 1.38 nM.

For `CSc1cccc(N(C)C(=N)Nc2cc(SCC[18F])ccc2Cl)c1`, the Activity [17] was “Not Active”, the inhibition at 1 µM (hERG (KCNH2)) was 56% and the logD [18] was 2.49. The Kd (Glutamate NMDA receptor) was 2.35 nM.

For `[11CH3]NC1(c2ccccc2)CCCCC1=O` (centres undefined) [[11C]KETAMINE], the Kd [15] was 1200 nM.

With `CN(C(=N)Nc1cccc2ccccc12)c1cccc([123I])c1` the Kd [15] was 4.2 nM and the logD [19] was 2.19.
